From patent publication US12492193B2, “Pyrazole derivatives for the treatment of cystic fibrosis” (Fondazione Istituto Italiano Di Tecnologia, priority 2017, dated 2025)

Key:
Assay type in all cases: cell-based
mutant CFTR = biological target: T1, mutant CFTR (Homo sapiens, UniProt P13569, DEL508-508); test: Fluorescence (HS-YFP) assay for CFTR activity, corrector assay; conditions: CFBE41o- and FRT cells with stable expression of mutant CFTR, 24 h compound treatment
T1 construct: expressed in transfected cells
In short: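 CFBE41o- or FRT cells stably expressing mutant CFTR and HS-YFP were exposed to compounds for 24 h (corrector mode), then stimulated 30 min at 37° C with forskolin (20 μM) plus genistein (50 μM). YFP quenching after 100 mM iodide injection; initial slope from exponential fit of final 10 s; EC50 reported.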

F508del-CFTR [1] = biological target: T2, F508del-CFTR (Homo sapiens, UniProt P13569, DEL508-508); test: Transepithelial electrical conductance (TEEC) in FRT cells expressing F508del-CFTR; design: expressed in transfected cells; host or cells: FRT cells; conditions: compounds tested at 5.0 μM, 24 hrs, table 2
Procedure: Transepithelial Electrical Conductance (TEEC)
FRT cells expressing F508del-CFTR were plated on HTS Transwell-24 well permeable supports (Code 3379, Corning Life Sciences) at a density of 200,000 cells/well. After six days, cells were incubated for 24 hrs with test correctors, vehicle, or VX-809. Compounds were dissolved in both basolateral (800 μL) and apical (300 μL) culture medium. After treatment, the culture medium was removed and replaced on both sides with a saline solution containing (in mM): 130 NaCl, 2.7 KCl, 1.5 KH2PO4, 1 CaCl2), 0.5 MgCl2, 10 glucose, 10 Na-Hepes (pH 7.4). The basolateral and apical side received 800 μL and […], respectively. The 24-well tray with cells was placed on a block heater (SBH 130D, Stuart) to keep the temperature at 37° C. during the entire experiment. After 10 min, the basal transepithelial electrical resistance (TEER) across each layer of FRT cells was measured with a STX100C electrode pair connected to an EVOM2 voltohmeter (World Precision Instruments). To stimulate F508del-CFTR, each well received (apical side) 50 μL of saline solution containing 60 μM forskolin and 150 μM genistein (final concentrations: 20 μM forskolin, 50 μM genistein). Forskolin was also pipetted in the basolateral medium to obtain the 20 μM concentration. After 10 min TEER was measured again in each well. To block F508del-CFTR function, the inhibitor PPQ-102 was used at the final concentration of 30 μM. To achieve the desired concentration, 75 μL of the apical solution in each well was replaced with an equal volume of saline solution containing 20 μM forskolin, 50 μM genistein, and 60 μM PPQ-102. After further 10 min, the transepithelial electrical resistance was measured. All values of TEER were converted to transepithelial electrical conductance (TEEC) using the formula TEEC=1/TEER. The parameter to indicate activity of F508del-CFTR in each well (ATEEC) was calculated from the difference in TEEC measured after maximal stimulation of F508del-CFTR with forskolin and genistein and after block with PPQ-102.
Corrector activities obtained on selected compounds tested at 5.0 μM (expressed as ΔTEEC values) are illustrated in table 2, wherein +: ΔTEEC<2000 μS; ++: 2000 μS<ΔTEEC<3000 μS; […]: ΔTEEC>3000 μS.

F508del-CFTR [2] = biological target: T2, F508del-CFTR; test: Short-circuit current recordings on human bronchial epithelial cells (F508del/F508del); design: Human bronchial epithelial (HBE) cells obtained from CF patients (F508del/F508del genotype); endogenous in cells; host or cells: primary human bronchial epithelial cells from CF patients, F508del/F508del; conditions: HBE cells from CF patients (F508del/F508del), 24 hrs treatment; table 3
Procedure: Short-Circuit Current Recordings on Human Bronchial Epithelial Cells
Human bronchial epithelial (HBE) cells obtained from CF patients (F508del/F508del genotype) were plated on Snapwell inserts (Code 3801, Corning Life Sciences) at a density of 500,000 cells per insert. Cells were cultured for two weeks in a differentiating medium whose compositions has been previously described (Scudieri et al., J Physiol 590:6141-6155, 2012). For the first week, the medium was kept on both apical and basolateral sides of inserts (submerged condition). For the second week, the apical medium was removed (air-liquid condition, ALC). To test the activity of correctors, cells were treated for 24 hrs with compounds dissolved in the basolateral medium. After treatment, Snapwell inserts carrying differentiated bronchial epithelia were mounted in a vertical chamber resembling an Ussing system with internal fluid circulation. Both apical and basolateral hemichambers were filled with 5 mL of a Krebs bicarbonate solution containing (in mM): 126 NaCl, 0.38 KH2PO4, 2.13 K2HPO4, 1 MgSO4, 1 CaCl2), 24 NaHCO3, and 10 glucose. Both sides were continuously bubbled with a gas mixture containing 5% CO2-95% air and the temperature of the solution was kept at 37° C. The transepithelial voltage was short-circuited with a voltage-clamp (DVC-1000, World Precision Instruments) connected to the apical and basolateral chambers via Ag/AgCl electrodes and agar bridges (1 M KCl in 1% agar). The offset between voltage electrodes and the fluid resistance were canceled before experiments. The short-circuit current was recorded with a PowerLab 4/25 (ADInstruments) analogical to digital converter connected to a Macintosh computer. […] The difference between the current measured with CPT-cAMP plus potentiator and the current remaining after CFTRinh-172 treatment (ΔICFTR) was taken as the parameter reflecting F508del-CFTR expression in the apical membrane.
Activities of selected compounds on HBE cells (expressed as ΔICFTR) are illustrated in table 3 wherein +: ΔICFTR<2.0 μA; ++: 2.0 μA<ΔICFTR<3.0 μA; +++: ΔICFTR>3.0 μA.

T1 sequence (P13569 with tags, fused parts or gaps DEL508-508): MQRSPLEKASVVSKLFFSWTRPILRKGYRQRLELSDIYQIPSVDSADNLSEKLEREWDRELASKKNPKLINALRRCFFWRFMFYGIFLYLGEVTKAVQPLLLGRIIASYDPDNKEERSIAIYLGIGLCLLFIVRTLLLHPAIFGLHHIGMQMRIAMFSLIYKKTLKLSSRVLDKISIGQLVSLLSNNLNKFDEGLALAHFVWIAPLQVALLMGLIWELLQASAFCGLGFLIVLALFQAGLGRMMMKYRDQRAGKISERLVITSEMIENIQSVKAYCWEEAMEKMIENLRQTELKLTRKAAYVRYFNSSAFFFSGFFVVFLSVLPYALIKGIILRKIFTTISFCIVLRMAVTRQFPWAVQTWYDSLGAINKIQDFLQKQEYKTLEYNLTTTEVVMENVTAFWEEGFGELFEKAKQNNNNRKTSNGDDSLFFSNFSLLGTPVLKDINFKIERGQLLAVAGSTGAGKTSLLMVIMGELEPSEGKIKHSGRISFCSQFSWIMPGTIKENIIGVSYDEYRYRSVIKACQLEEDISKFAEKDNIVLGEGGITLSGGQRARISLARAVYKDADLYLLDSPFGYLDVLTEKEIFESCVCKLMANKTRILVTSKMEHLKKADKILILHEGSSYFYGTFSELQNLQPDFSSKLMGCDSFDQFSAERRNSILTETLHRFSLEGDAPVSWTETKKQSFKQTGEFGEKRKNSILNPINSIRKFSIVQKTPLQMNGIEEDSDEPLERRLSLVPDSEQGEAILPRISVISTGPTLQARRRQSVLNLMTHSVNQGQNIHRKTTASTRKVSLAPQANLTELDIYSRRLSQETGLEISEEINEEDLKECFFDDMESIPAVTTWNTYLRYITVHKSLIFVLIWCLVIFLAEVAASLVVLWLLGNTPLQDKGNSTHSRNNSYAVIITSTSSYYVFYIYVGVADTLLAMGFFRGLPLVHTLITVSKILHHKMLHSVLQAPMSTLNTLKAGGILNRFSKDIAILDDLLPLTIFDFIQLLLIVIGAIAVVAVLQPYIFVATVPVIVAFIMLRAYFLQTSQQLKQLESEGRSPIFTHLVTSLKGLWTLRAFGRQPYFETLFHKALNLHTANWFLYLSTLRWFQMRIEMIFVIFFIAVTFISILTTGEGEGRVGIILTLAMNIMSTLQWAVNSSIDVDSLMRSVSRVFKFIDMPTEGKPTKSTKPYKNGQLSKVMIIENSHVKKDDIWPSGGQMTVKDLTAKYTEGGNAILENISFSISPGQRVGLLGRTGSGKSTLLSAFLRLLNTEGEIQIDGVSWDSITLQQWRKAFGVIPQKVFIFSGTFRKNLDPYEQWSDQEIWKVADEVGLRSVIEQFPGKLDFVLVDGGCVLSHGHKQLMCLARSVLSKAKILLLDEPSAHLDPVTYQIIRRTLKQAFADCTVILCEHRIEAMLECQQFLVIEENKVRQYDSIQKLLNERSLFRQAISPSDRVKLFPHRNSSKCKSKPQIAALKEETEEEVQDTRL
T2 sequence (P13569 with tags, fused parts or gaps DEL508-508): as above

SMILES: Cc1nn(-c2cccc(C(=O)N(C)c3ccc4c(c3)OCO4)c2)c(C)c1C(F)(F)F [compound 099, N-(1,3-Benzodioxol-5-yl)-3-[3,5-dimethyl-4-(trifluoromethyl)pyrazol-1-yl]-N-methyl-benzamide]
- EC50 (mutant CFTR): < 1000 nM
- Corrector activity (ΔTEEC) (F508del-CFTR [1]): ++ (2000 μS<ΔTEEC<3000 μS)
- activity on HBE cells (ΔICFTR) (F508del-CFTR [2]): ++ (2.0 μA<ΔICFTR<3.0 μA)

SMILES: Cc1nc2cc(Cl)c(N(C)C(=O)c3cccc(-n4nc(C)c(Cl)c4C)c3)cc2o1 [compound 080, 3-(4-Chloro-3,5-dimethyl-pyrazol-1-yl)-N-(5-chloro-2-methyl-1,3-benzoxazol-6-yl)-N-methyl-benzamide]
- EC50 (mutant CFTR): < 1000 nM
- Corrector activity (ΔTEEC) (F508del-CFTR [1]): ++ (2000 μS<ΔTEEC<3000 μS)
- activity on HBE cells (ΔICFTR) (F508del-CFTR [2]): ++ (2.0 μA<ΔICFTR<3.0 μA)

SMILES: CCOC(=O)c1c(Cl)c(C)nn1-c1cccc(C(=O)N(C)c2ccc3c(c2)OCO3)c1 [compound 075, Ethyl 2-[3-[1,3-benzodioxol-5-yl(methyl)carbamoyl]phenyl]-4-chloro-5-methyl-pyrazole-3-carboxylate]
- EC50 (mutant CFTR): < 1000 nM
- Corrector activity (ΔTEEC) (F508del-CFTR [1]): + (ΔTEEC<2000 μS)
- activity on HBE cells (ΔICFTR) (F508del-CFTR [2]): + (ΔICFTR<2.0 μA)

SMILES: Cc1c(Br)c(C(F)(F)F)nn1-c1cccc(C(=O)N(C)c2ccc3c(c2)OCO3)c1 [compound 098, N-(1,3-Benzodioxol-5-yl)-3-[4-bromo-5-methyl-3-(trifluoromethyl)pyrazol-1-yl]-N-methyl-benzamide]
- EC50 (mutant CFTR): < 1000 nM
- Corrector activity (ΔTEEC) (F508del-CFTR [1]): ++ (2000 μS<ΔTEEC<3000 μS)
- activity on HBE cells (ΔICFTR) (F508del-CFTR [2]): +++ (ΔICFTR>3.0 μA)

SMILES: Cc1nn(-c2cccc(C(=O)N(C)c3ccc4c(c3)OC(F)(F)O4)c2)c(C)c1Cl [compound 009, 3-(4-Chloro-3,5-dimethyl-pyrazol-1-yl)-N-(2,2-difluoro-1,3-benzodioxol-5-yl)-N-methyl-benzamide]
- EC50 (mutant CFTR): 1000 to 2000 nM
- Corrector activity (ΔTEEC) (F508del-CFTR [1]): + (ΔTEEC<2000 μS)
- activity on HBE cells (ΔICFTR) (F508del-CFTR [2]): ++ (2.0 μA<ΔICFTR<3.0 μA)

SMILES: CN(C(=O)c1cccc(-n2nc(C(F)(F)F)cc2-c2ccccc2)c1)c1ccc2c(c1)OCO2 [compound 125, N-(1,3-Benzodioxol-5-yl)-N-methyl-3-[5-phenyl-3-(trifluoromethyl)pyrazol-1-yl]benzamide]
- EC50 (mutant CFTR): < 1000 nM
- Corrector activity (ΔTEEC) (F508del-CFTR [1]): + (ΔTEEC<2000 μS)
- activity on HBE cells (ΔICFTR) (F508del-CFTR [2]): + (ΔICFTR<2.0 μA)

SMILES: Cc1nn(-c2cccc(C(=O)N(C)c3ccc4c(c3)OCO4)c2)c(COc2ccc(C(=O)O)cc2)c1Cl [compound 144, 4-[[2-[3-[1,3-Benzodioxol-5-yl(methyl)carbamoyl]phenyl]-4-chloro-5-methyl-pyrazol-3-yl]methoxy]benzoic acid]
- EC50 (mutant CFTR): < 1000 nM
- activity on HBE cells (ΔICFTR) (F508del-CFTR [2]): ++ (2.0 μA<ΔICFTR<3.0 μA)

SMILES: [2H]C([2H])([2H])N(C(=O)c1cccc(-n2nc(C(F)(F)F)c(Cl)c2COc2ccc(C(=O)O)cc2)c1)c1ccc2c(c1)OC(F)(F)O2 [compound 182, 4-[[4-Chloro-2-[3-[(2,2-difluoro-1,3-benzodioxol-5-yl)-(trideuteriomethyl)carbamoyl]phenyl]-5-(trifluoromethyl)pyrazol-3-yl]methoxy]benzoic acid]
- EC50 (mutant CFTR): < 1000 nM

SMILES: Cc1nc2ccc(N(C)C(=O)c3cccc(-n4nc(C(F)(F)F)c(Cl)c4COc4ccc(C(=O)O)cc4)c3)cn2n1 [compound 236, 4-[[4-Chloro-2-[3-[methyl-(2-methyl-[1,2,4]triazolo[1,5-a]pyridin-6-yl)carbamoyl]phenyl]-5-(trifluoromethyl)pyrazol-3-yl]methoxy]benzoic acid]
- EC50 (mutant CFTR): < 1000 nM

SMILES: Cc1cc(C)n(-c2cccc(C(=O)N(C)c3ccc4c(c3)OCCO4)c2)n1 [compound 011, N-(2,3-Dihydro-1,4-benzodioxin-6-yl)-3-(3,5-dimethylpyrazol-1-yl)-N-methyl-benzamide]
- EC50 (mutant CFTR): > 2000 nM

SMILES: CN(C(=O)c1cccc(-n2nc(C(F)(F)F)cc2-c2ccco2)c1)c1ccc2c(c1)OCO2 [compound 147, N-(1,3-Benzodioxol-5-yl)-3-[5-(2-furyl)-3-(trifluoromethyl)pyrazol-1-yl]-N-methyl-benzamide]
- EC50 (mutant CFTR): < 1000 nM

SMILES: CN(C(=O)c1cccc(-n2nc(C(F)(F)F)c(Cl)c2COc2cnc(C(=O)O)cn2)c1)c1ccc2c(c1)OC(F)(F)O2 [compound 226, 5-[[4-Chloro-2-[3-[(2,2-difluoro-1,3-benzodioxol-5-yl)-methyl-carbamoyl]phenyl]-5-(trifluoromethyl)pyrazol-3-yl]methoxy]pyrazine-2-carboxylic acid]
- EC50 (mutant CFTR): < 1000 nM

SMILES: CN(C(=O)c1cccc(-n2nc(C(F)(F)F)c(C#N)c2Oc2ccccc2)c1)c1ccc2c(c1)OCO2 [compound 185, N-(1,3-Benzodioxol-5-yl)-3-[4-cyano-5-phenoxy-3-(trifluoromethyl)pyrazol-1-yl]-N-methyl-benzamide]
- EC50 (mutant CFTR): < 1000 nM

SMILES: Cc1cc(C2CC2)n(-c2cccc(C(=O)N(C)c3ccc4c(c3)OCO4)c2)n1 [compound 097, N-(1,3-Benzodioxol-5-yl)-3-(5-cyclopropyl-3-methyl-pyrazol-1-yl)-N-methyl-benzamide]
- EC50 (mutant CFTR): < 1000 nM

SMILES: Cc1nn(-c2cccc(C(=O)N(C)c3ccc4c(c3)OCO4)c2)c(C)c1C(N)=O [compound 056, 1-[3-[1,3-Benzodioxol-5-yl(methyl)carbamoyl]phenyl]-3,5-dimethyl-pyrazole-4-carboxamide]
- EC50 (mutant CFTR): > 2000 nM

SMILES: Cc1c(N(C)C(=O)c2cccc(-n3nc(C(F)(F)F)c(Cl)c3C)c2)ccc2c1OCO2 [compound 269, 3-[4-chloro-5-methyl-3-(trifluoromethyl)pyrazol-1-yl]-N-methyl-N-(4-methyl-1,3-benzodioxol-5-yl)benzamide]
- EC50 (mutant CFTR): > 2000 nM

SMILES: Cc1c(F)c(C(F)(F)F)nn1-c1cccc(C(=O)N(C)c2ccc3c(c2)OCO3)c1 [compound 126, N-(1,3-Benzodioxol-5-yl)-3-[4-fluoro-5-methyl-3-(trifluoromethyl)pyrazol-1-yl]-N-methyl-benzamide]
- EC50 (mutant CFTR): < 1000 nM

SMILES: CN(C(=O)c1cccc(-n2cccn2)c1)c1ccc2c(c1)OCCO2 [compound 010, N-(2,3-Dihydro-1,4-benzodioxin-6-yl)-N-methyl-3-pyrazol-1-yl-benzamide]
- EC50 (mutant CFTR): > 2000 nM

SMILES: CN(C(=O)c1cccc(-n2nc(C(F)(F)F)c(C#N)c2COc2ccc(C(=O)O)cc2)c1)c1ccc2c(c1)OC(F)(F)O2 [compound 224, 4-[[4-Cyano-2-[3-[(2,2-difluoro-1,3-benzodioxol-5-yl)-methyl-carbamoyl]phenyl]-5-(trifluoromethyl)pyrazol-3-yl]methoxy]benzoic acid]
- EC50 (mutant CFTR): < 1000 nM
